Patent US8278083B2 (priority 2004, dated 2012)
Read-outs that look alike come from different tables or passages of the source.

Tests used:
[1] = tested on: influenza HA; format: cell-based, influenza virus; conditions: pH 5.0
[2] = tested on: tumor cells; format: cell-based
[3] = tested on: influenza virus; format: cell-based
[4] = tested on: HIV; format: cell-based; conditions: cells exposed to INA-treated HIV; FIG. 6
[5] = tested on: HeLa cell membrane; format: cell-based; conditions: HeLa cells, INA 20 or 100 μM + UV; FIG. 17
[6] = tested on: neuraminidase; format: biochemical, influenza virus H3N2
[7] = tested on: EBOV-GFP; format: cell-based, Zaire Ebola virus
[8] = tested on: HIV-1(MN); format: cell-based; conditions: INA-treated HIV-1(MN); for Avg. Capsid Protein conc. Day 7 / Avg. Capsid Protein conc. Day 14 / Avg. Capsid Protein conc. Day 21: AA2 clone 1 cells; for Culture Result Neg / Culture Result Pos: of quadruplicate cultures
[9] = tested on: SIV Mne; format: cell-based
[10] = tested on: SIV; format: cell-based; conditions: INA-treated SIV; FIG. 5
[11] = tested on: Zaire EBOV; format: cell-based, Zaire Ebola virus
[12] = tested on: HIV; format: binding; conditions: compared with non-treated virus; p24 ELISA; FIG. 7
[13] = tested on: influenza virus strain H3N2 (X-31); format: cell-based

[N-]=[N+]=Nc1cccc2c(I)cccc12 [INA, 1,5-iodonaphthyl azide]
redistribution of viral envelope proteins into the cell membrane (125INA incorporation into HA) [1]: almost no detectable signal
ability of tumor cells to divide and form colonies [2]: blocked their ability to divide and form colonies
pH dependent mixing of lipids from the viral envelope with lipids of the target cell (R-18 dequenching) [3]: not affected
luciferase expression in JC53BL cells [4]: substantially no luciferase expression is detected
mobile fraction of the lipid (DiO) [5]: not affected
protein mobile fraction (CD4-GFP) [5]: reduced to background level
catalytic activity of the viral envelope enzyme neuraminidase [6]: not affected
concentration sufficient to inactivate EBOV completely [7]: 100 to 200 µM
infectivity of EBOV-GFP ([7]; 24-96 h): complete loss of infectivity
Avg. Capsid Protein conc. Day 7 ([8]; 1/dil 10^1): 9,201 pg/ml
Avg. Capsid Protein conc. Day 14 ([8]; 1/dil 10^1): 0 pg/mL
Avg. Capsid Protein conc. Day 21 ([8]; 1/dil 10^1): 0 pg/mL
Culture Result Neg ([8]; 1/dil 10^1, day 21): 4
Culture Result Pos ([8]; 1/dil 10^1, day 21): 0
Avg. Capsid Protein conc. Day 7 ([8]; 1/dil 10^2): 0 pg/mL
Avg. Capsid Protein conc. Day 14 ([8]; 1/dil 10^2): 0 pg/mL
Avg. Capsid Protein conc. Day 21 ([8]; 1/dil 10^2): 0 pg/mL
Culture Result Neg ([8]; 1/dil 10^2, day 21): 4
Culture Result Pos ([8]; 1/dil 10^2, day 21): 0
Avg. Capsid Protein conc. Day 7 ([8]; 1/dil 10^3): 0 pg/mL
Avg. Capsid Protein conc. Day 14 ([8]; 1/dil 10^3): 0 pg/mL
Avg. Capsid Protein conc. Day 21 ([8]; 1/dil 10^3): 0 pg/mL
Culture Result Neg ([8]; 1/dil 10^3, day 21): 4
Culture Result Pos ([8]; 1/dil 10^3, day 21): 0
Avg. Capsid Protein conc. Day 7 ([8]; 1/dil 10^4): 0 pg/mL
Avg. Capsid Protein conc. Day 14 ([8]; 1/dil 10^4): 0 pg/mL
Avg. Capsid Protein conc. Day 21 ([8]; 1/dil 10^4): 0 pg/mL
Culture Result Neg ([8]; 1/dil 10^4, day 21): 4
Culture Result Pos ([8]; 1/dil 10^4, day 21): 0
Avg. Capsid Protein conc. Day 7 ([8]; 1/dil 10^5): 0 pg/mL
Avg. Capsid Protein conc. Day 14 ([8]; 1/dil 10^5): 0 pg/mL
Avg. Capsid Protein conc. Day 21 ([8]; 1/dil 10^5): 0 pg/mL
Culture Result Neg ([8]; 1/dil 10^5, day 21): 4
Culture Result Pos ([8]; 1/dil 10^5, day 21): 0
Avg. Capsid Protein conc. Day 7 ([8]; 1/dil 10^6): 0 pg/mL
Avg. Capsid Protein conc. Day 14 ([8]; 1/dil 10^6): 0 pg/mL
Avg. Capsid Protein conc. Day 21 ([8]; 1/dil 10^6): 0 pg/mL
Culture Result Neg ([8]; 1/dil 10^6, day 21): 4
Culture Result Pos ([8]; 1/dil 10^6, day 21): 0
1/TCID50/ml ([8]; Reed and Muench, day 21): 0
infectivity blocked ([9]; 200 μM INA, SIV (P-28) and HIV (P-24) expression): 100%
production of the viral protein p28 ([9]; 200 μM INA, up to 11 days after INA treatment, FIG. 4): no detectable production
1/TCID50/ml ([9]; INA-treated SIV Mne, Reed and Muench, day 21): 0
Culture Result Pos ([9]; INA-treated SIV, 1/dil 10^1, number of cultures productively infected, day 21): 0
Culture Result Neg ([9]; INA-treated SIV, 1/dil 10^1, number of cultures uninfected, day 21): 0
viral infectivity of SIV ([9]; as little as 50 μM INA, FIG. 4): reduced to essentially zero
fusion of SIV with the target cell at the plasma membrane level [10]: blocked fusion of SIV with the target cell
virus growth (genome copies in culture supernatant) [11]: did not show any growth
binding of INA-treated HIV to neutralizing antibodies 2G12, B12 and 4E10 [12]: interacts substantially the same as the non-treated virus
infectivity of the influenza virus [13]: reduced the infectivity of the influenza virus to zero
